# Measured values as given in article PMC11578313, “Miniaturized Modular Click Chemistry‐enabled Rapid Discovery of Unique SARS‐CoV‐2 M^pro Inhibitors With Robust Potency and Drug‐like Profile” (Advanced Science, 2024).
# “And” between values parts separate entries of the source, which are not always exact repeats. Identical values can stand only once. Like-named read-outs stand apart in the source and are kept apart here.
# Settings: for Plasma concentration (Calculated Concentration): mouse plasma
# [1] = C5N17B+Ritonavir, PO 10 mg/kg, individual mice 1#-3#, 10 mg/kg
# [2] = C5N17B+Ritonavir, po 10 mg/kg, based on predicted Clast, individual mice, 10 mg/kg
# [3] = C5N17B+Ritonavir, po 10 mg/kg, dose-normalised, individual mice, 10 mg/kg
# [4] = C5N17B+Ritonavir, po 10 mg/kg, non-compartmental output, individual mice, 10 mg/kg
smiles,measurement,setting,value
Cc1cncc(C(=O)N2C[C@H]3CC[C@@H](C2)N3[C@H](c2cccc(F)c2)c2cn(CCc3ccsc3)nn2)c1 [Compound C5N17B],AUC0-∞,[1],13462 ng·h/mL and 18653 ng·h/mL
same,AUC(0-t),[1],13105 ng·h/mL and 11834 ng·h/mL
same,Cmax,[1],2150 ng/mL and 2470 ng/mL
same,MRT0-t,[1],3.43 h and 3.39 h
same,MRT0-∞,[1],3.03 h and 3.63 h and 7.98 h
same,T1/2,[1],1.87 h and 2.03 h and 5.52 h
same,Plasma concentration (Calculated Concentration),"C5N17B+Ritonavir, PO 10 mg/kg, 5 min (5min), individual mice, 10 mg/kg",861 ng/mL and 439 ng/mL
same,Plasma concentration (Calculated Concentration),"C5N17B+Ritonavir, PO 10 mg/kg, 0.5 h (30min), individual mice, 10 mg/kg",1220 ng/mL and 1720 ng/mL
same,Plasma concentration (Calculated Concentration),"C5N17B+Ritonavir, PO 10 mg/kg, 1 h, individual mice, 10 mg/kg",1750 ng/mL and 1960 ng/mL
same,Plasma concentration (Calculated Concentration),"C5N17B+Ritonavir, PO 10 mg/kg, 2 h, individual mice, 10 mg/kg",2270 ng/mL and 2140 ng/mL
same,Plasma concentration (Calculated Concentration),"C5N17B+Ritonavir, PO 10 mg/kg, 4 h, individual mice, 10 mg/kg",1920 ng/mL and 2150 ng/mL
same,AUCINF_pred,[2],13994.4 ng·h/mL and 18824.1 ng·h/mL
same,Cl_F_pred,[2],15.3694 mL/min/kg and 11.9096 mL/min/kg and 8.85392 mL/min/kg
same,MRTINF_pred,[2],3.269 h and 3.905 h and 8.0548 h
same,Vz_F_pred,[2],2.48776 L/kg and 2.09319 L/kg and 4.22695 L/kg
same,AUCINF_D_pred,"C5N17B+Ritonavir, po 10 mg/kg, dose-normalised, based on predicted Clast, individual mice, 10 mg/kg",1084.41 kg·ng·h/mL/mg and 1399.44 kg·ng·h/mL/mg and 1882.41 kg·ng·h/mL/mg
same,AUCINF_D_obs,[3],1039.52 kg·ng·h/mL/mg and 1346.22 kg·ng·h/mL/mg and 1865.31 kg·ng·h/mL/mg
same,AUClast_D,[3],968.565 kg·ng·h/mL/mg and 1310.48 kg·ng·h/mL/mg and 1183.41 kg·ng·h/mL/mg
same,Cmax_D,[3],227 kg·ng/mL/mg and 215 kg·ng/mL/mg and 247 kg·ng/mL/mg
same,Tlag,"C5N17B+Ritonavir, po 10 mg/kg, non-compartmental output, individual mice",0 h
same,AUCINF_obs,[4],13462.2 ng·h/mL and 18653.1 ng·h/mL
same,AUCall,[4],13104.8 ng·h/mL and 11834.1 ng·h/mL
same,AUClast,[4],13104.8 ng·h/mL and 11834.1 ng·h/mL
same,AUMClast,[4],25373.2 h*h*ng/ml and 44928.8 h*h*ng/ml and 40086.7 h*h*ng/ml
same,Cl_F_obs,[4],12.3804 mL/min/kg and 8.93505 mL/min/kg
same,Cmax,[4],2150 ng/mL and 2470 ng/mL
same,HL_Lambda_z,[4],1.87 h and 2.03 h and 5.515 h
same,Lambda_z,[4],0.3707 h⁻¹ and 0.3414 h⁻¹ and 0.1257 h⁻¹
same,MRTINF_obs,[4],3.035 h and 3.628 h and 7.982 h
same,MRTlast,[4],3.428 h and 3.387 h
same,Tlast,[4],6 h and 8 h
same,Vz_F_obs,[4],2.5952 L/kg and 2.17594 L/kg and 4.26569 L/kg
same,Clast_pred,"C5N17B+Ritonavir, po 10 mg/kg, predicted from terminal fit, individual mice, 10 mg/kg",429.412 ng/mL and 303.677 ng/mL and 878.481 ng/mL
same,plasma exposure (AUC0‐t) with ritonavir higher than when administered alone,p.o. 10 mg kg^−1,~300 fold
